Laboratory results taken from patent US20110301245A1, “(R)-2-(3,4-DIMETHOXYPHENOL)-2-ISOPROPYL-6-AZAHEPTANITRIL FORMULAITONS, ANDTHE USE OF SUCH FORMULATIONS IN THE TREATMENT OF CONDITIONS MEDIATED BY THE SEROTONIN TRANSPORTER” (AGI THERAPEUTICS, PLC, priority 2010, published 2011).
“And” between values parts separate entries of the source, which are not always exact repeats. Equal values may be shown once. Read-outs that look alike come from different tables or passages of the source.

What was measured:
[1] = system: male wistar rats with Monocrotaline-induced PAH; test: Inhibition of PAH development, monocrotaline-induced pulmonary arterial hypertension; assay type: in vivo, rat; settings: Mct 60 mg/kg sc, 5 mg/kg IP daily for 21 days
Method: Experimental pulmonary arterial hypertension (PAH) was induced in male wistar rats (Charles River Laboratories) weighing between 250 and 300 g by subcutaneous injection of 60 mg/kg Monocrotaline (Met) on Day 1. The Mct (Sigma Aldrich) was dissolved in 1N HCl at a concentration of 300 mg/ml as per M. Rey et al., Current Protocols in Pharmacology, 5.56.1-5.56.11, September 2009, which document is incorporated by reference herein in its entirety. Mct was then neutralized by adding 1N NaOH and diluted with sterile distilled water to a final concentration of 20 mg/ml. An injection volume of 3 ml/kg was used to achieve the 60 mg/kg dose.
A total of 44 rats were injected as follows: 15 rats were injected subcutaneously with Mct (untreated PAH controls), 15 rats were injected subcutaneously with Mct followed by daily IP injection with 5 mg/kg (R)-2-(3,4-dimethoxyphenol)-2-isopropyl-6-azaheptanitril for 21 days (R-D617 treated group), and 14 rats were injected subcutaneously with neutralized solvent having no Mct (non-PAH controls (sham)).
All animals were then housed (allowed food and water ad lib). The animals were anaesthetized 21 days after injection, and pulmonary arterial pressure was measured and expressed as mean pulmonary arterial pressure (mPAP mmHg). A terminal sample was also obtained and used to obtain terminal drug concentrations. […]

[2] = target: T1, 5-HT uptake (rat brain synaptosomes) (Rattus norvegicus, UniProt P31652); test: In vitro 5-HT uptake assay using rat brain synaptosomes; assay type: biochemical; settings: for % of Control Values, 1st / % of Control Values, 2nd / % of Control Values, Mean: Table 2-2
T1 construct: from tissue; host or cells: rat brain synaptosomes
Method: Briefly, the uptake assay was performed using rat brain synaptosomes according to the method generally described in Perovic and Muller, Arzneim-Forsch. […] For its disclosure of the above-noted assay, Perovic and Muller is incorporated herein by reference in its entirety.
The results are expressed as a percent of control specific activity ((measured specific activity/control specific activity)×100) obtained in the presence of (R)-2-(3,4-dimethoxyphenol)-2-isopropyl-6-azaheptanitril.
The IC50 values (concentration causing a half-maximal inhibition of control specific activity) and Hill coefficients (nH) were determined by non-linear regression analysis of the inhibition curves generated with mean replicate values using Hill equation curve fitting (Y=D+[(A−D)/(1+(C/C50)^nH)], where Y=specific activity, D=minimum specific activity, A=maximum specific activity, C=compound concentration, C50=IC50 and nH=slope factor).

[3] = Terminal plasma drug concentrations by HPLC in the PAH study; assay type: in vivo; settings: rat, 5 mg/kg IP daily for 21 days
Method: All animals were then housed (allowed food and water ad lib). The animals were anaesthetized 21 days after injection, and pulmonary arterial pressure was measured and expressed as mean pulmonary arterial pressure (mPAP mmHg). A terminal sample was also obtained and used to obtain terminal drug concentrations. Following exsanguination, cardiac tissues were excised and used to assess the wet weight of the right cardiac ventricle.

[4] = target: T2, 5-HT transporter (h) (Homo sapiens, UniProt P31645); test: 5-HT transporter (h) antagonist radioligand binding assay, human recombinant CHO cells, [3H]imipramine
T2 construct: expressed in transfected cells; host or cells: CHO cells
Excerpt: For its discussion of the assay method, Tatsumi et al. is incorporated herein by reference in its entirety.
The specific ligand binding to the receptors is defined as the difference between the total binding and the nonspecific binding determined in the presence of an excess of unlabelled ligand.
The results are expressed as a percent of control specific binding ((measured specific binding/control specific binding)×100) and as a percent inhibition of control specific binding (100−((measured specific binding/control specific binding)×100)) obtained in the presence of (R)-2-(3,4-dimethoxyphenol)-2-isopropyl-6-azaheptanitril.
The IC50 values (concentration causing a half-maximal inhibition of control specific binding) and Hill coefficients (nH) were determined by non-linear regression analysis of the competition curves generated with mean replicate values using Hill equation curve fitting (Y=D+[(A−D)/(1+(C/C50)^nH)], where Y=specific binding, D=minimum specific binding, A=maximum specific binding, C=compound concentration, C50=IC50, and nH=slope factor).
The inhibition constants (Ki) were calculated using the Cheng Prusoff equation (Ki=IC50/(1+(L/KD)), where L=concentration of radioligand in the assay, and KD=affinity of the radioligand for the receptor).

[5] = system: other receptors tested, including calcium channels; test: Single high concentration test on other receptors (data not included); assay type: binding; settings: single high concentration 1×10^−5M
[6] = target: HERG (Homo sapiens, UniProt Q12809); settings: prior non-clinical studies; cited from earlier work
[7] = system: CYP; settings: prior non-clinical studies; cited from earlier work
[8] = target: p-glycoprotein (Homo sapiens, UniProt P08183); settings: prior non-clinical studies; cited from earlier work
[9] = % of the potency of verapamil; cited from earlier work

T1 sequence (P31652 whole entry): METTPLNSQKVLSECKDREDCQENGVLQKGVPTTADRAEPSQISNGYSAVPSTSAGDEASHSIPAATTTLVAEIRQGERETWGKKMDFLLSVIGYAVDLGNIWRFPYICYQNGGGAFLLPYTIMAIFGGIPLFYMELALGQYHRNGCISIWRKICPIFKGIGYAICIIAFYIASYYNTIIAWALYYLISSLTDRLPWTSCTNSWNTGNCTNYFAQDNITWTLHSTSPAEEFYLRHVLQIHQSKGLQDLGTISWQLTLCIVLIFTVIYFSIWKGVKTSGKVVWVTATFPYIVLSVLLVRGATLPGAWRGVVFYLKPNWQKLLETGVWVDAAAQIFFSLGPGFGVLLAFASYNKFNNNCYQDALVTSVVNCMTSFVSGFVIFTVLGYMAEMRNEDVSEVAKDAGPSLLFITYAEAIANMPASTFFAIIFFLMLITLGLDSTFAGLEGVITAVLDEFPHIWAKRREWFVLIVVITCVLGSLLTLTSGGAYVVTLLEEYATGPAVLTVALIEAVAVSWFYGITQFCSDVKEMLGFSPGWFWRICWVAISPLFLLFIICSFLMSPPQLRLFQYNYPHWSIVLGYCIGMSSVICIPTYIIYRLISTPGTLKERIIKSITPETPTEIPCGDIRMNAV
T2 sequence (P31645 whole entry): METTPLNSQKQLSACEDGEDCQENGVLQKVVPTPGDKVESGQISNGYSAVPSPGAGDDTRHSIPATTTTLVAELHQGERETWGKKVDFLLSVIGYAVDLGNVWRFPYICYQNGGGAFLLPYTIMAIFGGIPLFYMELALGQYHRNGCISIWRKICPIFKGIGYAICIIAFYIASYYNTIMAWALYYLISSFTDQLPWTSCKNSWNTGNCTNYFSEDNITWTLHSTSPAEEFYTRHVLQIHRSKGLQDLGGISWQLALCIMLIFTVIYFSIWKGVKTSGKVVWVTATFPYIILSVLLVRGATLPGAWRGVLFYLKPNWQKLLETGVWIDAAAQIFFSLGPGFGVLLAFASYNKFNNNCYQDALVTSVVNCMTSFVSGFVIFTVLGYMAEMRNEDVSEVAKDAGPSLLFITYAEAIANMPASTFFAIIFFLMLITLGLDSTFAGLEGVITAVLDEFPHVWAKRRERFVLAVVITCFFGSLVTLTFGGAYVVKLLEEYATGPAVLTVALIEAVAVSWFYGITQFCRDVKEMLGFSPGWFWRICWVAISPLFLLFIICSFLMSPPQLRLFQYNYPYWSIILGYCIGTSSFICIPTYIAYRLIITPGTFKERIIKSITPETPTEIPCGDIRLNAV
p-glycoprotein, sequence (P08183 whole entry): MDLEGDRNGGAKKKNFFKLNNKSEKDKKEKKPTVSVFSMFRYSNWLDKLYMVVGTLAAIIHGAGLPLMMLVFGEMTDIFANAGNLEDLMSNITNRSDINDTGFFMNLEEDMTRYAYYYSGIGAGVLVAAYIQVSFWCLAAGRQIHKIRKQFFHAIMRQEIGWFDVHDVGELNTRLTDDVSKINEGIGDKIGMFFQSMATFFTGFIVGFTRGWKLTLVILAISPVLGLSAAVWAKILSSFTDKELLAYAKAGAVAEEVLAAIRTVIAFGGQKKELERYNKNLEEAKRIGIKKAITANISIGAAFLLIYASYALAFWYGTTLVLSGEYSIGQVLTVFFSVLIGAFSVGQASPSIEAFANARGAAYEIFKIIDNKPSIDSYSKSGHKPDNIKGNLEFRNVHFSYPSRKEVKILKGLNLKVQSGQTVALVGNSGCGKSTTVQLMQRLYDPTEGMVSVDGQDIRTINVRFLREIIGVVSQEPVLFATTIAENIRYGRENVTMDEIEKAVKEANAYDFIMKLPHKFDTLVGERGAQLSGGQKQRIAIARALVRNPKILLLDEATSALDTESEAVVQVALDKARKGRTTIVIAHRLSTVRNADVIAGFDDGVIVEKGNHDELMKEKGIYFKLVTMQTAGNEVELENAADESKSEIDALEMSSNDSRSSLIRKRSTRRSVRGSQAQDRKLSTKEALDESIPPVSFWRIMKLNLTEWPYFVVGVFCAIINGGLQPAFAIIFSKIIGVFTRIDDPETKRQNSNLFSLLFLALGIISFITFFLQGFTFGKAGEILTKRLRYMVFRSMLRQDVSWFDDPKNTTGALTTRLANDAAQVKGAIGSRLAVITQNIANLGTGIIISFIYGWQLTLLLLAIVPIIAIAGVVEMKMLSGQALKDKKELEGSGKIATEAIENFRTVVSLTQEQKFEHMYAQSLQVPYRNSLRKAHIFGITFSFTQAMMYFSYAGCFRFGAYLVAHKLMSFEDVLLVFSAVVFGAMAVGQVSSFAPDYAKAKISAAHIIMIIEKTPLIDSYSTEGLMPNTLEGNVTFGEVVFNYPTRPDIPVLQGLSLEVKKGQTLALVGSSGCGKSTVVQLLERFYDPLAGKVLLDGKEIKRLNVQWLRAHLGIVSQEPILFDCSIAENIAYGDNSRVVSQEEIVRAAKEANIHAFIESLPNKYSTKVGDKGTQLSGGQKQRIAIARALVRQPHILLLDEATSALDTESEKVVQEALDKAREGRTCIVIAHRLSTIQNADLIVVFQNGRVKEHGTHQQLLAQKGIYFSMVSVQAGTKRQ
HERG, sequence (Q12809 whole entry): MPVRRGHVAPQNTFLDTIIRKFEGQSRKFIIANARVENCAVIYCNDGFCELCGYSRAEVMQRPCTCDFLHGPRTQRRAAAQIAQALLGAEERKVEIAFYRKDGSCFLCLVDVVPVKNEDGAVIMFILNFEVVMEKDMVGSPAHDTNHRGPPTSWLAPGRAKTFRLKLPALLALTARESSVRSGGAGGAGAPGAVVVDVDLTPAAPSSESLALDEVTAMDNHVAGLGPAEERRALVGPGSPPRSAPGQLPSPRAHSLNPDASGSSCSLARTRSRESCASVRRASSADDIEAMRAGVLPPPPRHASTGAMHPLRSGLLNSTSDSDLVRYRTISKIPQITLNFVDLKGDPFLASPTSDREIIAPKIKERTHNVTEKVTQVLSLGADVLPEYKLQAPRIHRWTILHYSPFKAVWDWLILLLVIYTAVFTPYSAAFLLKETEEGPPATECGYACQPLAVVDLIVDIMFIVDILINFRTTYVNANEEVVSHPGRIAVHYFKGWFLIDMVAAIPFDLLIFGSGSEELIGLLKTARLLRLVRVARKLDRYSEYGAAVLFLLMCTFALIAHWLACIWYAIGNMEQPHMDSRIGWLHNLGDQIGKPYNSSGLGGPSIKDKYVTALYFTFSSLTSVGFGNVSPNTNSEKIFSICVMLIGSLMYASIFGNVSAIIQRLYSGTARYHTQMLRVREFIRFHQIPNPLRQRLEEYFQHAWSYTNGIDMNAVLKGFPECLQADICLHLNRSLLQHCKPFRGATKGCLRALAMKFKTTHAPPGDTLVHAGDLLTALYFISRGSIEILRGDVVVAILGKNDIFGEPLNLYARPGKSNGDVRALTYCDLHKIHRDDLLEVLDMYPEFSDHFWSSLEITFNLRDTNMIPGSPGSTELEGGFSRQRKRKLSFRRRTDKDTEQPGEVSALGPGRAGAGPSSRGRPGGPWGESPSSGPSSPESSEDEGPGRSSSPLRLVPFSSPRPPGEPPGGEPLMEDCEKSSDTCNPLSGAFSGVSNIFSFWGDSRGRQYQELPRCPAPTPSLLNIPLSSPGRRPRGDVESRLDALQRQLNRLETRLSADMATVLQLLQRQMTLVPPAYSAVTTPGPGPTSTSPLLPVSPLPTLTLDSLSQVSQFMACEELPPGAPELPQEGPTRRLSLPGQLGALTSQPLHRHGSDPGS

CNCCC[C@](C#N)(c1ccc(OC)c(OC)c1)C(C)C [(R)-2-(3,4-dimethoxyphenol)-2-isopropyl-6-azaheptanitril]
mPAP (Mean +/− SEM) ([1]; measured 21 days after injection, untreated PAH control 36.0, sham 14.7): 30.0 +/− 2.5 mmHg
Right Ventricle Weight (Mean +/− SEM) ([1]; wet weight, untreated PAH control 317.9, sham 167.4): 288.7 +/− 13.4
IC50 ([2]; Table 2-1, 5-HT uptake): 240 nM
% of Control Values, 1st ([2]; 1.0E−05 M): 1.0%
% of Control Values, 2nd ([2]; 1.0E−05 M): 5.2%
% of Control Values, Mean ([2]; 1.0E−05 M): 3.1%
% of Control Values, 1st ([2]; 1.0E−06 M): 22.1%
% of Control Values, 2nd ([2]; 1.0E−06 M): 21.1%
% of Control Values, Mean ([2]; 1.0E−06 M): 21.6%
% of Control Values, 1st ([2]; 1.0E−07 M): 79.8%
% of Control Values, 2nd ([2]; 1.0E−07 M): 81.9%
% of Control Values, Mean ([2]; 1.0E−07 M): 80.8%
% of Control Values, 1st ([2]; 1.0E−08 M): 101.7%
% of Control Values, 2nd ([2]; 1.0E−08 M): 94.0%
% of Control Values, Mean ([2]; 1.0E−08 M): 97.9%
% of Control Values, 1st ([2]; 3.0E−07 M): 47.8%
% of Control Values, 2nd ([2]; 3.0E−07 M): 44.9%
% of Control Values, Mean ([2]; 3.0E−07 M): 46.3%
% of Control Values, 1st ([2]; 3.0E−08 M): 108.1%
% of Control Values, 2nd ([2]; 3.0E−08 M): 82.8%
% of Control Values, Mean ([2]; 3.0E−08 M): 95.4%
% of Control Values, 1st ([2]; 3.0E−09 M): 100.2%
% of Control Values, 2nd ([2]; 3.0E−09 M): 113.4%
% of Control Values, Mean ([2]; 3.0E−09 M): 106.8%
% of Control Values, 1st ([2]; 3.0E−10 M): 113.5%
% of Control Values, 2nd ([2]; 3.0E−10 M): 113.3%
% of Control Values, Mean ([2]; 3.0E−10 M): 113.4%
mean terminal plasma concentration of (R)-2-(3,4-dimethoxyphenol)-2-isopropyl-6-azaheptanitril ([3]; R-D617 treated group): 18.5 ng/mL
terminal plasma concentration of R-verapamil after R-D617 treatment ([3]; lower limit of quantification 1 ng/ml): < 1 ng/mL
R-verapamil measured in terminal plasma of the R-D617 treated group ([3]; result in words): no quantifiable R-verapamil
% Inhibition of Control Specific Binding ([4]; Table 1-1, test concentration 1.0E−05 M): 100%
% of Control Specific Binding, 1st ([4]; Table 1-2, 1.0E−05 M): −0.6%
% of Control Specific Binding, 2nd ([4]; Table 1-2, 1.0E−05 M): 0.8%
% of Control Specific Binding, Mean ([4]; Table 1-2, 1.0E−05 M): 0.1%
nH (Hill coefficient) ([4]; Table 1-4): 1.0
Ki ([4]; Table 1-4, Cheng Prusoff): 22 nM
% of Control Specific Binding, 1st ([4]; Table 1-5, 1.0E−05 M): 0.5%
% of Control Specific Binding, 2nd ([4]; Table 1-5, 1.0E−05 M): 0.2%
% of Control Specific Binding, Mean ([4]; Table 1-5, 1.0E−05 M): 0.3%
% of Control Specific Binding, 1st ([4]; Table 1-5, 1.0E−06 M): 5.9%
% of Control Specific Binding, 2nd ([4]; Table 1-5, 1.0E−06 M): 3.7%
% of Control Specific Binding, Mean ([4]; Table 1-5, 1.0E−06 M): 4.8%
% of Control Specific Binding, 1st ([4]; Table 1-5, 1.0E−07 M): 36.5%
% of Control Specific Binding, 2nd ([4]; Table 1-5, 1.0E−07 M): 32.5%
% of Control Specific Binding, Mean ([4]; Table 1-5, 1.0E−07 M): 34.5%
% of Control Specific Binding, 1st ([4]; Table 1-5, 1.0E−08 M): 83.3%
% of Control Specific Binding, 2nd ([4]; Table 1-5, 1.0E−08 M): 84.8%
% of Control Specific Binding, Mean ([4]; Table 1-5, 1.0E−08 M): 84.0%
% of Control Specific Binding, 1st ([4]; Table 1-5, 3.0E−07 M): 15.3%
% of Control Specific Binding, 2nd ([4]; Table 1-5, 3.0E−07 M): 13.1%
% of Control Specific Binding, Mean ([4]; Table 1-5, 3.0E−07 M): 14.2%
% of Control Specific Binding, 1st ([4]; Table 1-5, 3.0E−08 M): 66.6%
% of Control Specific Binding, 2nd ([4]; Table 1-5, 3.0E−08 M): 58.0%
% of Control Specific Binding, Mean ([4]; Table 1-5, 3.0E−08 M): 62.3%
% of Control Specific Binding, 1st ([4]; Table 1-5, 3.0E−09 M): 101.5%
% of Control Specific Binding, 2nd ([4]; Table 1-5, 3.0E−09 M): 88.4%
% of Control Specific Binding, Mean ([4]; Table 1-5, 3.0E−09 M): 94.9%
% of Control Specific Binding, 1st ([4]; Table 1-5, 3.0E−10 M): 104.1%
% of Control Specific Binding, 2nd ([4]; Table 1-5, 3.0E−10 M): 102.0%
% of Control Specific Binding, Mean ([4]; Table 1-5, 3.0E−10 M): 103.1%
IC50 ([4]; read-out: IC50 for inhibition of binding at the serotonin transporter): 47 nM
inhibition of the serotonin transporter ([4]; single high concentration 1×10^−5M): 100%
inhibition at the majority of the other receptors tested [5]: < 75%

CNCCCC(C#N)(c1ccc(OC)c(OC)c1)C(C)C [D-617, 2-(3,4-dimethoxyphenol)-2-isopropyl-6-azaheptanitril]
block of HERG-induced currents [6]: does not block
CYP-mediated metabolism: substrate / inhibitor [7]: substrate for but not a potent inhibitor of
p-glycoprotein transport: substrate / inhibitor [8]: substrate for, but not an inhibitor of
cardiovascular potency compared with verapamil [9]: 2.6%

CN(C)CCCN1c2ccccc2CCc2ccccc21 [imipramine, reference compound]
nH (Hill coefficient) [4]: 0.9 and 1.2

COc1ccc(CCNCCCC(C#N)(c2ccc(OC)c(OC)c2)C(C)C)cc1OC (stereo not drawn) [nor-verapamil]
cardiovascular potency compared with verapamil [9]: 21.9%
